Measurements published in ChEMBL document CHEMBL6078688, “Discovery of Novel MyD88 Inhibitor A5S to Alleviate Acute Lung Injury with Favorable Drug-like Properties” (J Med Chem, 2024).
The source made the active and inactive calls. The rule behind the calls is not given here.

How the values were obtained:
[1] = Oral bioavailability in Sprague-Dawley rat at 50 mg/kg administration measured upto 24 hrs by LC-MS/MS analysis; format: ADME, organism-based; conditions: in vivo
[2] = Stability of compound in enzyme free simulated gastric fluid measured upto 12 hrs; format: physicochemical; conditions: simulated gi fluid
[3] = Half life in Sprague-Dawley rat at 1 mg/kg,iv administration measured upto 24 hrs by LC-MS/MS analysis; format: ADME, organism-based; conditions: in vivo
[4] = AUC (0 to infinity) in Sprague-Dawley rat at 1 mg/kg,iv administration measured upto 24 hrs by LC-MS/MS analysis; format: ADME, organism-based; conditions: in vivo
[5] = AUC (0 to t) in Sprague-Dawley rat at 1 mg/kg,iv administration measured upto 24 hrs by LC-MS/MS analysis; format: ADME, organism-based; conditions: in vivo
[6] = Tmax in Sprague-Dawley rat at 50 mg/kg,po administration measured upto 24 hrs by LC-MS/MS analysis; format: ADME, organism-based; conditions: in vivo
[7] = Cmax in Sprague-Dawley rat at 1 mg/kg,iv administration measured upto 24 hrs by LC-MS/MS analysis; format: ADME, organism-based; conditions: in vivo
[8] = Stability of compound in simulated gastric fluid measured upto 12 hrs; format: physicochemical; conditions: simulated gi fluid
[9] = Cmax in Sprague-Dawley rat at 50 mg/kg,po administration measured upto 24 hrs by LC-MS/MS analysis; format: ADME, organism-based; conditions: in vivo
[10] = Stability of compound in rat serum measured after 6 hrs; format: ADME, cell-free
[11] = AUC (0 to t) in Sprague-Dawley rat at 50 mg/kg,po administration measured upto 24 hrs by LC-MS/MS analysis; format: ADME, organism-based; conditions: in vivo
[12] = Stability of compound in simulated intestinal fluid measured upto 12 hrs; format: physicochemical; conditions: simulated gi fluid
[13] = Tmax in Sprague-Dawley rat at 1 mg/kg,iv administration measured upto 24 hrs by LC-MS/MS analysis; format: ADME, organism-based; conditions: in vivo
[14] = Stability of compound in enzyme free simulated intestinal fluid measured upto 12 hrs; format: physicochemical; conditions: simulated gi fluid
THP-1 = test: Anti-inflammatory activity in LPS-induced human THP-1 cells assessed as inhibition of IL-6 production at 10 uM by ELISA relative to control; format: functional
J774.A1 [15] = test: Cytotoxicity against mouse J774.A1 cells at 10 uM by MTT assay; format: toxicity, cell-based; conditions: j774.a1, 10 µM
J774.A1 [16] = test: Anti-inflammatory activity in LPS-induced mouse J774.A1 cells assessed as inhibition of IL-6 production at 10 uM by ELISA; format: functional, cell-based
J774.A1 [17] = test: Anti-inflammatory activity in LPS-induced mouse J774.A1 cells assessed as inhibition of TNF-alpha production at 10 uM by ELISA; format: functional, cell-based
[18] = target: Myeloid differentiation primary response protein MyD88 (Homo sapiens, UniProt Q99836); test: Binding affinity to MYD88 (unknown origin) assessed as dissociation constant by biolayer interferometry
Sequence of Myeloid differentiation primary response protein MyD88 (Q99836 whole entry): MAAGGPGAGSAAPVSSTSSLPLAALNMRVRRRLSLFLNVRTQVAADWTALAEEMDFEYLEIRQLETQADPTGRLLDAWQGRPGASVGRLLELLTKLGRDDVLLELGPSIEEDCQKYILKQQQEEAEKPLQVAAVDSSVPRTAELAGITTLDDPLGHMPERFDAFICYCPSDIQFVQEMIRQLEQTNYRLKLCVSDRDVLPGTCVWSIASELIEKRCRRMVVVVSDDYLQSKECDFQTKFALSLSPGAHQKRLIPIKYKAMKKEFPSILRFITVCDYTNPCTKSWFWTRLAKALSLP

[19] = Drug concentration in Sprague-Dawley rat serum at 15 mg/kg,iv administration measured upto 24 hrs by LC-MS/MS analysis; format: ADME, organism-based; conditions: read-out: Ct
Peritoneal macrophage = test: Antiinflammatory activity in LPS-induced mouse Peritoneal macrophage cells assessed as inhibition of IFN-beta mRNA level at 1.25 to 5 uM by RT-PCR analysis; format: functional, cell-based; conditions: dose 1.25-5 µM
Mus musculus [20] = test: Antiinflammatory activity against LPS induced acute lung injury C57BL/6 mouse model assessed as reduction in of leukocytes in alveolar region at 20 mg/kg,po administrated with compound for 30 mins followed by LPS treatment and measured after 6 hrs by immunohistochemical staining based analysis; format: functional, organism-based
Mus musculus [21] = test: Antiinflammatory activity against LPS induced acute lung injury C57BL/6 mouse model assessed as reduction in histopathological change in lung at 20 mg/kg,po administrated with compound for 30 mins followed by LPS treatment and measured after 6 hrs by H and E staining based analysis; format: functional, organism-based; conditions: time 6.5 hrs
J774.A1 [22] = test: Anti-inflammatory activity in LPS-induced mouse J774.A1 cells assessed as inhibition of IL-6 production by ELISA; format: functional, cell-based
J774.A1 [23] = test: Inhibition of NF-kappaB signalling pathway in LPS-induced mouse J774.A1 cells assessed as downregulation of p65 phosphorylation by Western blotting analysis; format: cell-based
[24] = target: Toll-like receptor 4/Ly96 (Mus musculus) (UniProt Q9QUK6+Q9JHF9); test: Inhibition of MD2/TLR4 protein-protein interaction in LPS-induced mouse J774.A1 cells at 20 uM incubated for 2 hrs by coimmunoprecipitation analysis; format: cell-based
J774.A1 [25] = test: Anti-inflammatory activity in LPS-induced mouse J774.A1 cells assessed as inhibition of TNF-alpha production by ELISA; format: functional, cell-based
[26] = target: TLR4-MyD88 (Mus musculus) (UniProt Q9QUK6+P22366); test: Inhibition of MYD88/TLR4 protein-protein interaction in LPS-induced mouse J774.A1 cells at 20 uM incubated for 2 hrs by coimmunoprecipitation analysis; format: cell-based
Sequence of TLR4-MyD88 (Mus musculus) (P22366 whole entry, looked up): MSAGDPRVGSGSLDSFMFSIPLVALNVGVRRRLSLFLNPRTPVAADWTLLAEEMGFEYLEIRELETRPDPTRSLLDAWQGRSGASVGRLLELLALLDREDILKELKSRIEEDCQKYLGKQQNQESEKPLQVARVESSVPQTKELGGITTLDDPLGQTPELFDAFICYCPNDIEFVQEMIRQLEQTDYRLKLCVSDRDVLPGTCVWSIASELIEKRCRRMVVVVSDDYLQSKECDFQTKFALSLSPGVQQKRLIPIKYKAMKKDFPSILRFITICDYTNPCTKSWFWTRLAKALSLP
Sequence of TLR4-MyD88 (Mus musculus) (Q9QUK6 whole entry, looked up): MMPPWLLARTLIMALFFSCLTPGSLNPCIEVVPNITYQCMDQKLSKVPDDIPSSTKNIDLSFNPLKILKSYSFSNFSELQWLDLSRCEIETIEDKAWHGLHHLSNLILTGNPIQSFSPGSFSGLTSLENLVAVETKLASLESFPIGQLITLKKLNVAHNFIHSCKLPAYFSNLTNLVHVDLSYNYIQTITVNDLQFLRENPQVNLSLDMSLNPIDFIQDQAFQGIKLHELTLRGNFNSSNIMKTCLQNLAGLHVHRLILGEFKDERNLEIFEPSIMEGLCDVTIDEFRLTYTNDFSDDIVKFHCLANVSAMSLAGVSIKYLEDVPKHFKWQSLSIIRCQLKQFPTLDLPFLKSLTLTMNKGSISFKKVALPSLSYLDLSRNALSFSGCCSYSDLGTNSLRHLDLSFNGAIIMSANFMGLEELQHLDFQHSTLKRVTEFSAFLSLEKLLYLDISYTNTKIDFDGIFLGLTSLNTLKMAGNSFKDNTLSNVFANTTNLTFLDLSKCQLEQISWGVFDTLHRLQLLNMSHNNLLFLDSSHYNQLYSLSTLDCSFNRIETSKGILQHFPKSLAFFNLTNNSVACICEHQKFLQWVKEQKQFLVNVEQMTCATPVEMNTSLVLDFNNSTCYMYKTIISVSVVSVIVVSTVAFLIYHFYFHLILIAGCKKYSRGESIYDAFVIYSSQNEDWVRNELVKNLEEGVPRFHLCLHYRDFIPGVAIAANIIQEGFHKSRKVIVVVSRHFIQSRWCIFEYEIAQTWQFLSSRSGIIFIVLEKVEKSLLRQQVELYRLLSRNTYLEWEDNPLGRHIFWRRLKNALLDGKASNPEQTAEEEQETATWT

J774.A1 [27] = test: Inhibition of NF-kappaB signalling pathway in LPS-induced mouse J774.A1 cells assessed as upregulation of IkappaB-alpha expression by Western blotting analysis; format: cell-based
J774.A1 [28] = test: Cytotoxicity against mouse J774.A1 cells at 3 to 12 uM by MTT assay; format: toxicity, cell-based; conditions: j774.a1, 12 µM, dose 3-12 µM

SMILES	inhibition at 10 µM (THP-1)	Activity (J774.A1 [15])	further results
COc1ccc(-c2csc(NC(=O)CCN3CCN(Cc4cccc([N+](=O)[O-])c4)CC3)n2)cc1OC			bioavailability [1]: 0.13%; Stability [2]: Stable; half-life [3]: 4.8 min; AUC(0-inf) [4]: 79.9 ng·h/mL; AUC(0-t) at 24 h [5]: 79.1 ng·h/mL; Tmax [6]: 15 min; Cmax [7]: 297 ng/mL; Stability [8]: Stable; Cmax [9]: 3.99 ng/mL; Stability [10]: Unstable; AUC(0-t) at 24 h [11]: 4.38 ng·h/mL; Stability [12]: Stable; Tmax [13]: 4.8 min; Stability [14]: Stable
CC(c1cccc(F)c1)C(O)CN1CCN(CC(O)COc2ccc(F)cc2)CC1 (stereo not given)	42.1%	Non-toxic	
CC(C)(C)c1ccc(OCC(O)CN2CCN(Cc3cc4ccccc4[nH]3)CC2)cc1 (stereo not given)	5.83%	Toxic	
COc1ccccc1OCC(O)CN1CCN(CC(O)C(C)c2ccccc2)CC1 (stereo not given)	27.8%	Non-toxic	
Cc1c(CN2CCN(C3CCNC3)CC2)[nH]c2ccc(F)cc12 (stereo not given)	71.7%	Non-toxic	inhibition (J774.A1 [16]): Active; inhibition (J774.A1 [17]): Active; Kd [18]: 276 µM
O=C(CCN1CCN(Cc2ccccc2)CC1)Nc1nc(-c2ccccc2)cs1			concentration at 24 h [19]: 1190 ng/mL
CC(c1cccc(F)c1)C(O)CN1CCN(CC(O)COc2ccc(Br)cc2)CC1 (stereo not given)	43.1%	Non-toxic	
OC(COc1ccc(Cl)cc1)CN1CCN(Cc2cc3ccccc3[nH]2)CC1 (stereo not given)	85.3%	Non-toxic	
OC(COc1ccc(Br)cc1)CN1CCN(Cc2cc3ccccc3[nH]2)CC1 (stereo not given)	84.2%	Non-toxic	Kd [18]: 84.8 µM
COc1ccc(OCC(O)CN2CCN(CC(O)C(C)c3cccc(F)c3)CC2)cc1 (stereo not given)	37.8%	Non-toxic	
CC(c1ccccc1)C(O)CN1CCN(CC(O)COCc2ccccc2)CC1 (stereo not given)	20%	Non-toxic	
COc1ccccc1OCC(O)CN1CCN(Cc2cc3ccccc3[nH]2)CC1 (stereo not given)	62.6%	Non-toxic	
COc1ccc(OCC(O)CN2CCN(Cc3cc4ccccc4[nH]3)CC2)cc1 (stereo not given)	69%	Non-toxic	
CC(c1cccc(F)c1)C(O)CN1CCN(CC(O)COc2ccc(Cl)cc2)CC1 (stereo not given)	55.5%	Non-toxic	
CC(c1cccc(F)c1)C(O)CN1CCN(CC(O)COCc2ccccc2)CC1 (stereo not given)	30.4%	Non-toxic	
CC(c1ccccc1)C(O)CN1CCN(CC(O)COc2ccc(F)cc2)CC1 (stereo not given)	4.5%	Non-toxic	
OC(COc1ccccc1)CN1CCN(Cc2cc3ccccc3[nH]2)CC1 (stereo not given)	74%	Non-toxic	

SMILES	inhibition at 10 µM (THP-1)	Activity (J774.A1 [15])	further results
COc1ccc(C(=O)/C=C/c2cccc(OC)c2OC)cc1			Activity (Peritoneal macrophage): Active
C[C@@H]1C[C@H]2[C@@H]3CCC4=CC(=O)C=C[C@]4(C)[C@@]3(F)[C@@H](O)C[C@]2(C)[C@@]1(O)C(=O)CO			Activity (Mus musculus [20]): Active; Activity (Mus musculus [21]): Active
COc1ccc(OCC(O)CN2CCN(CC(O)C(C)c3ccccc3)CC2)cc1 (stereo not given)	46.8%	Non-toxic	
OC(COc1ccc(F)cc1)CN1CCN(Cc2cc3ccccc3[nH]2)CC1 (stereo not given)	76.3%	Non-toxic	
Cc1ccccc1OCC(O)CN1CCN(CC(O)C(C)c2ccccc2)CC1 (stereo not given)	21.5%	Non-toxic	
CC(c1ccccc1)C(O)CN1CCN(CC(O)COc2ccccc2)CC1 (stereo not given)	30.5%	Non-toxic	
CC(c1ccccc1)C(O)CN1CCN(CC(O)COc2ccc(Cl)cc2)CC1 (stereo not given)	14%	Non-toxic	
OC(COCc1ccccc1)CN1CCN(Cc2cc3ccccc3[nH]2)CC1 (stereo not given)	72.7%	Non-toxic	
CC(c1cccc(F)c1)C(O)CN1CCN(CC(O)COc2ccccc2)CC1 (stereo not given)	31.8%	Non-toxic	
CC(c1ccccc1)C(O)CN1CCN(CC(O)COc2ccc(Br)cc2)CC1 (stereo not given)	47.9%	Non-toxic	
O[C@@H](COc1ccc(Br)cc1)CN1CCN(Cc2cc3ccccc3[nH]2)CC1			IC50 (J774.A1 [22]): 0.82 µM; inhibition (J774.A1 [23]): Active; inhibition [24]: inactive; IC50 (J774.A1 [25]): 3.75 µM; inhibition [26]: Active; inhibition (J774.A1 [27]): Active; Activity (J774.A1 [28]): Non-toxic
CC(c1cccc(F)c1)C(O)CN1CCN(CC(O)COc2ccc(C(C)(C)C)cc2)CC1 (stereo not given)	44.3%	Non-toxic	
COc1ccccc1OCC(O)CN1CCN(CC(O)C(C)c2cccc(F)c2)CC1 (stereo not given)	52.8%	Non-toxic	
Cc1ccccc1OCC(O)CN1CCN(CC(O)C(C)c2cccc(F)c2)CC1 (stereo not given)	46.2%	Non-toxic	
Cc1ccccc1OCC(O)CN1CCN(Cc2cc3ccccc3[nH]2)CC1 (stereo not given)	75.4%	Non-toxic	
CC(c1ccccc1)C(O)CN1CCN(CC(O)COc2ccc(C(C)(C)C)cc2)CC1 (stereo not given)	46.4%	Toxic	
